In one data set the test system is Pseudomonas aeruginosa. The experiment in a line: Antimicrobial testing by agar dilution, Pseudomonas aeruginosa. The data set is classed as cell-based. As to conditions: after 10, 20, 40 and 60 min at all dilutions 1:100, 1:200, 1:400, 1:800. The method, then: (§1) The antimicrobial properties of the 9-(4-Nitrobenzylidene)-4-(4-nitrophenyl)-3-cyano-2-methoxy-6,7,8,9-tetrahydro-5H-cyclohepta[b]pyridine was studied by the method of agar dilution. Test solutions of each compound was prepared in concentration of 1% using dimethylformamide as a solvent then they are diluted in physiological solution to obtain the final experimental dilutions 1:100, 1:200, 1:400, 1:800. The effect of these substances are compared with furacillin in a controllable study. The testing microbes used were gram positive bacteria Staphylococcus aureus, gram negative bacteria Pseudomonas aeruginosa, Escherichia coli and Candida albicans fungi were taken.
(§2) The experiments used for this survey were meat-pentonlu agar (EPA) for cultivation of bacteria and Saburo environment for fungi. Each experiment used 1 mL of test solution on each plate 500 min. Add 2 drops of emulsified with microbes feel. All experimental samples were taken from the agar after 10, 20, 40, 60 minutes in the environment on the basis of Patrk planted. Bacteria were cultivated at a temperature of 37° C. for 1 day and the mushroom was kept in a thermostat for […] at a temperature of 28° C. Then the results were checked.

The subject of the next data set is Escherichia coli. Description: Antimicrobial testing by agar dilution, Escherichia coli. In kind it is cell-based. The settings on record: after 10, 20, 40 and 60 min at all dilutions 1:100, 1:200, 1:400, 1:800. As for the experimental part: as §1, §2
On the technique in general: Agar dilution tests growth on a series of plates holding different concentrations.

A further data set concerns Candida albicans. Description: Antimicrobial testing by agar dilution, Candida albicans. The data set is classed as cell-based. The settings on record: after 10, 20, 40 and 60 min at all dilutions 1:100, 1:200, 1:400, 1:800. As for the experimental part:
as §1, §2

Another data set concerns Staphylococcus aureus. Description: Antimicrobial testing by agar dilution, Staphylococcus aureus. As to conditions: after 10, 20, 40 and 60 min at all dilutions 1:100, 1:200, 1:400, 1:800. The data set is classed as cell-based. As for the experimental part: as §1, §2

On to `COc1nc2c(c(-c3ccc([N+](=O)[O-])cc3)c1C#N)CCCC/C2=C\c1ccc([N+](=O)[O-])cc1` [9-(4-nitrobenzylidene)-4-(4-nitrophenyl)-3-cyano-2-methoxy-6,7,8,9-tetrahydro-5H-cyclohepta[b]pyridine], for which the melting point fell in the range of 133 to 135 °C. In addition, the inhibition activity result in the data set on Pseudomonas aeruginosa is reported as “most higher inhibition activity”. Besides, the inhibition activity result in the data set on Escherichia coli is listed as “most higher inhibition activity”. In addition, the inhibition activity result in the data set on Candida albicans is recorded as “most higher inhibition activity”. Moreover, the inhibition activity result in the data set on Staphylococcus aureus is reported as “most higher inhibition activity”.

In general, melting point refers to the temperature of the solid-liquid transition.

Values taken from patent publication US11932605B1, “9-(4-nitrobenzylidene)-4-(4-nitrophenyl)-3-cyano-2-methoxy-6,7,8,9-tetrahydro-5h-cyclohepta[b]pyridine as an antimicrobial compound” (KING FAISAL UNIVERSITY, priority 2023, dated 2024).
